Data: patent publication US9732046B2, “Substituted 1,2,4-triazines as tubulin inhibitors” (YM Biosciences Australia Pty Ltd., priority 2003, dated 2017)

Key:
[1] = molecular target: T1, TelJak2 (BaF3 TELJAK cells, TEL/Jak2 fusion) (Homo sapiens, UniProt O60674); test: Cellular growth inhibition assay (MTT), BaF3 TEL:JAK2 cell line; assay type: cell-based; conditions: Table 1, 40 hr incubation
T1 construct: The regions encompassing the kinase domain of JAK2 (nucleotides 2994-3914); expressed in transfected cells; host or cells: BaF3 cells bearing the pTET-off plasmid, transfected with pTELJAK2 (pTRE2 vector); the other entry of the earlier key: ETV6 (P41212, Transcription factor ETV6)
Procedure: (§1) For screening purposes, compounds were diluted in 96 well plates at a concentration of 20 μM. Plates were warmed at 37° C. for 30 minutes before assay.
(§2) The coding region encompassing nucleotides 1-487 of TEL was amplified by PCR using the oligonucleotides 5TEL (5′-GGAGGATCCTGATCTCTCTCGCTGTGAGAC-3′) (SEQ ID NO: 1) and 3TEL (5′-AGGC GTCGACTTCTTCTTGATGGTTCTG-3′) (SEQ ID NO: 2) and U937 mRNA as template. A BamH I site was incorporated into the 5TEL primer, and a Sal I site was incorporated into the 3TEL primer. The regions encompassing the kinase domain of JAK2 (nucleotides 2994-3914; JAK2F 5′-ACGC GTCGACGGTGCCTTTGAAGACCGGGAT-3 (SEQ ID NO: 3); JAK2R 5′-ATAGTTTAGCGGCCGCTCAGAATGAAGGTCATTT-3′) (SEQ ID NO: 4) and JAK3 (nucleotides 2520-3469; JAK3F 5′-GAAGTCGACTATGCCTGCCAAGACCCCACGATCTT-3′ (SEQ ID NO: 5); JAK3R 5′-GGATCTAGACTATGAAAAGGACAGGGAGTGGTGTTT-3′ (SEQ ID NO: 6)) were generated by PCR using Taq DNA polymerase (Gibco/BRL) and U937 mRNA as template. A Sal I site was incorporated into the forward primer of JAK2 and JAK3, a Not I site was incorporated into the JAK2 reverse primer and a Xba I site was added to the reverse primer of JAK3.
(§3) A TEL/Jak2 fusion was generated by digestion of the TELPCR product with BamH I/Sa1 I, digestion of the JAK2 PCR product with Sa1 I/Not I followed by ligation and subcloning into the mammalian expression Vector pTRE 2 (Clontech) digested with BamH I-Not I (pTELJAK2). For JAK3 Sa1 I/Not I cleaved kinase domain PCR product was ligated with BamH I/Sa1 I cleaved TELproduct followed by ligation into BamH I/Not I cleaved pTRE2 (pTELJAK3).
(§4) The growth factor dependent myelomonocytic cell line BaF3 bearing the pTET-off plasmid (Clontech) was transfected with either pTELJAK2 or pTELJAK3 and the cells selected for factor independent growth. BaF 3 wild type cells were cultured in DMEM 10% FCS, 10% WEHI 3B conditioned medium. BaF3 TELJAK cells were cultured in DMEM 10% Tet-System Approved FBS (without WEHI 3B conditioned medium).
(§5) Cell suspensions were prepared by harvesting cells from culture. (Cells used in this test should be in later log phase growth and high viability.) Cells were diluted in correct growth medium to 1.1× final concentration (from 50000 cell/mL to 200,000 cell/mL, depending on cell line).
(§6) Compounds to be tested were added (10 μL, 10× final concentration) to a flat bottom 96-well plate. The cellular suspension (90 μL per well) was added, and the plate incubated for 40 hr at 37° C., 5% CO2. MTT (20 μL per well, 5 mg/mL in PBS) was added and the plates were returned to the incubator for a further 6 hours. Lysis buffer (100 μL per well, 10% SDS, 0.01N HCl) was added and the plate stored in the incubator overnight. The plate was then read at 590 nm.

[2] = molecular target: T2, TelJak3 (BaF3 TELJAK cells, TEL/JAK3 fusion) (Homo sapiens, UniProt P52333); test: Cellular growth inhibition assay (MTT), BaF3 TEL:JAK3 cell line; assay type: cell-based; conditions: Table 1, 40 hr incubation
T2 construct: For JAK3 Sa1 I/Not I cleaved kinase domain PCR product was ligated with BamH I/Sa1 I cleaved TELproduct; expressed in transfected cells; host or cells: BaF3 cells bearing the pTET-off plasmid, transfected with pTELJAK3 (pTRE2 vector); the other entry of the earlier key: ETV6 (P41212, Transcription factor ETV6)
Procedure: as §1, §2, §3, §4, §5, §6

PC3 (Prostate Cancer) = test: Cellular growth inhibition assay (MTT), PC3; assay type: cell-based; conditions: Table 1, 40 hr incubation
Procedure: as §1
(§7) K562 (Chronic Myeloid Leukemia), PC3 (Prostate Cancer), and DU145 (Prostate Cancer) were obtained from the American Type Culture Collection (ATCC). K562 was grown in RPMI, with 10% FBS with Glutamx added. DU145 cells were cultured in DMED, with 10% FBS and Glutamx and MEM non-essential amino acids added. PC3 cells were grown in F12K medium, with 10% FBS and Glutamx and MEM non-essential amino acids added. All cells were grown at 37° C. in 5% CO2.
as §5, §6

[3] = test system: K562 (Chronic Myeloid Leukemia); test: Cellular growth inhibition assay (MTT), K562; assay type: cell-based; conditions: Homo sapiens, Table 1, 40 hr incubation
Procedure: as §1, §7, §5, §6

DU145 (Prostate Cancer) = test: Cellular growth inhibition assay (MTT), DU145; assay type: cell-based; conditions: Homo sapiens, DU-145, Table 1, 40 hr incubation
Procedure: as §1, §7, §5, §6

[4] = test system: Tubulin (microtubule protein); test: Tubulin assay (turbidometric assay of microtubule assembly); assay type: biochemical; conditions: Table 1; 50 μM; absorbance at 340 nm, 37° C.
Procedure: Turbidometric assays of microtubule assembly were performed by incubating microtubule protein in cuvettes at 37° C. in a thermostatically controlled spectrophotometer measuring the change in absorbance at 340 nm over time. The microtubule protein was incubated with the each test compound at 0° C. and polymerisation was initiated by addition of 1 mM GTP, prior to heating to 37° C.

T1 sequence (O60674 with tags, fused parts or gaps): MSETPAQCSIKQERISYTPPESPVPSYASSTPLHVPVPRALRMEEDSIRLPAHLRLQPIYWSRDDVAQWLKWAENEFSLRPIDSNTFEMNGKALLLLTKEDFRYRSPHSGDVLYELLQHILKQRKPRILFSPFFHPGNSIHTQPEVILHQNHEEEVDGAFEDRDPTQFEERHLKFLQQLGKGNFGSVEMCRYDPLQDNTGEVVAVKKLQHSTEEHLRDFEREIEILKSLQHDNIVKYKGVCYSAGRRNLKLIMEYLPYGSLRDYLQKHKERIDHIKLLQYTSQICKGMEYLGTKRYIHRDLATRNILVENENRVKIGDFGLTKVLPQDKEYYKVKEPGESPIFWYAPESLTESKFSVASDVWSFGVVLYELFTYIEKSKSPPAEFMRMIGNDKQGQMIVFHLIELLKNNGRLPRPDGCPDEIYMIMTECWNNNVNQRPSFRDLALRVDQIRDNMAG
T2 sequence (P52333 with tags, fused parts or gaps): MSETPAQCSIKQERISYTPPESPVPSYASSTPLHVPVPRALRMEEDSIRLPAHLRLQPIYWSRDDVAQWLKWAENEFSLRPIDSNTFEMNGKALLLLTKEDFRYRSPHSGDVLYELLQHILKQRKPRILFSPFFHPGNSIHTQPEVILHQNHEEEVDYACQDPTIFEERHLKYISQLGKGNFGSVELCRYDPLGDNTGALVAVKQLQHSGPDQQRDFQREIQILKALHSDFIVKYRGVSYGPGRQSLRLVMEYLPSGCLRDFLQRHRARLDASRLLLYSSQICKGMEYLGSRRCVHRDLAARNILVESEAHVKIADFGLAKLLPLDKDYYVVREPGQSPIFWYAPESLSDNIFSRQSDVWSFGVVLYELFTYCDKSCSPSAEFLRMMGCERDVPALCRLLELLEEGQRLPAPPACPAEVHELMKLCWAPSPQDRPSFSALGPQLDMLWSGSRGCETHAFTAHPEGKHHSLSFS

Compound | inhibition at 20 µM [1] [%] | inhibition at 20 µM [2] [%] | inhibition at 20 µM (PC3 (Prostate Cancer)) [%] | inhibition at 20 µM [3] [%] | inhibition at 20 µM (DU145 (Prostate Cancer)) [%] | Tubulin inhibition of tubulin polymerisation [4]
CCCC(Nc1cncc(-c2ccc(OCCCCN(CC)CC)c(OC)c2)n1)c1ccccc1 (stereo not drawn) | > 50 | > 50 | > 50 | > 50 | > 50 | + (compounds which inhibited tubulin polymerisation by greater than 50% at 50 μM)
CCCC(Nc1cncc(-c2ccc(NC(=O)NCC)c(OC)c2)n1)c1ccccn1 (stereo not drawn) | > 50 | > 50 | > 50 | > 50 | > 50 | + (compounds which inhibited tubulin polymerisation by greater than 50% at 50 μM)
CCCC(Nc1cncc(-c2ccc(OCCCCN3CCN(C)CC3)c(OC)c2)n1)c1ccccc1 (stereo not drawn) | > 50 | > 50 | > 50 | > 50 | > 50 | + (compounds which inhibited tubulin polymerisation by greater than 50% at 50 μM)
CCCC(Nc1cncc(-c2ccc(CNC(=O)C3CCNCC3)cc2)n1)c1ccccc1 (stereo not drawn) | > 50 | > 50 | > 50 | > 50 | > 50 | + (compounds which inhibited tubulin polymerisation by greater than 50% at 50 μM)
CCCC(Nc1cncc(-c2ccc(OCCCO)c(OC)c2)n1)c1ccccc1 (stereo not drawn) | > 50 | > 50 | > 50 | > 50 | > 50 | + (compounds which inhibited tubulin polymerisation by greater than 50% at 50 μM)
CCCC(Nc1cncc(-c2ccc(NC(=O)NCC)c(C)c2)n1)c1cnccc1C (stereo not drawn) | > 50 | > 50 | > 50 | > 50 | > 50 | + (compounds which inhibited tubulin polymerisation by greater than 50% at 50 μM)
CCCC(Nc1cncc(-c2ccc(CO)cc2)n1)c1ccccc1 (stereo not drawn) | > 50 | > 50 | > 50 | > 50 | > 50 | + (compounds which inhibited tubulin polymerisation by greater than 50% at 50 μM)
CCC[C@H](Nc1cncc(-c2ccc(NC(=O)NCC)c(OC)c2)n1)c1ccccc1 | > 50 | > 50 | > 50 | > 50 | > 50 | + (compounds which inhibited tubulin polymerisation by greater than 50% at 50 μM)
CCCC(Nc1nc(-c2ccc(NC(=O)NCC)c(OC)c2)cnc1C)c1ccccc1 (stereo not drawn) | > 50 | > 50 | > 50 | > 50 | > 50 | + (compounds which inhibited tubulin polymerisation by greater than 50% at 50 μM)
